What all share (assay): relative viability (nuclei count vs DMSO), 5 days (fraction); higher = more cells survive
Compound in the test “BI-D1870 + AZD7762”: CC(C)CCN1c2nc(Nc3cc(F)c(O)c(F)c3)ncc2N(C)C(=O)C1C [BI-D1870] + NC(=O)Nc1cc(-c2cccc(F)c2)sc1C(=O)N[C@H]1CCCNC1 [AZD7762] (partner 0.2 µM)
The method, boiled down: (§1)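 After 5 days of treatment, lung cancer cells in 1536-well plates were fixed and stained in a single step (final 0.05% Triton X-100, 1% formaldehyde, 1 ug/ml Hoechst) and their nuclei counted on 4× images. Treatment had been applied by pin tool the day after seeding as one drug alone or as a fixed anchor-drug dose with five library-drug doses (not always all listed) in √10 steps. Relative viability is the nuclei count of treated wells divided by that of vehicle wells, and values are medians of duplicate plates.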

Compound in the test “Zebularine + Crizotinib”: O=c1ncccn1[C@@H]1O[C@H](CO)[C@@H](O)[C@H]1O [Zebularine] + C[C@@H](Oc1cc(-c2cnn(C3CCNCC3)c2)cnc1N)c1c(Cl)ccc(F)c1Cl [Crizotinib] (partner 1 µM)
In short, it runs like this: as §1

Compound in the test “BI-D1870 + Olaparib”: CC(C)CCN1c2nc(Nc3cc(F)c(O)c(F)c3)ncc2N(C)C(=O)C1C [BI-D1870] + O=C(c1cc(Cc2n[nH]c(=O)c3ccccc23)ccc1F)N1CCN(C(=O)C2CC2)CC1 [Olaparib] (partner 8 µM)
The method, boiled down: as §1

Compound in the test “Zebularine + Foretinib”: O=c1ncccn1[C@@H]1O[C@H](CO)[C@@H](O)[C@H]1O [Zebularine] + COc1cc2c(Oc3ccc(NC(=O)C4(C(=O)Nc5ccc(F)cc5)CC4)cc3F)ccnc2cc1OCCCN1CCOCC1 [Foretinib] (partner 0.25 µM)
The method, boiled down:
as §1

In the supplement of paper PMC10307832 one finds relative viability data, which are given here for 7 cell lines.

NCI-H2170: the relative viability with BI-D1870 + AZD7762 (first compound 0.04 µM) came out at 0.977; with BI-D1870 + AZD7762 (first compound 0.1265 µM), 0.882; in the test with BI-D1870 + AZD7762 (first compound 0.4 µM) it was 0.844; with BI-D1870 + AZD7762 (first compound 1.265 µM), 0.923; with BI-D1870 + AZD7762 (first compound 4 µM) it was 0.654; with Zebularine + Crizotinib (first compound 1 µM), 1.31. The relative viability was found to be 1.13 with Zebularine + Crizotinib (first compound 3.162 µM); 0.7 with Zebularine + Crizotinib (first compound 10 µM); 0.981 with Zebularine + Crizotinib (first compound 31.62 µM); 0.517 in the test with Zebularine + Crizotinib (first compound 100 µM); 0.707 in the test with BI-D1870 + Olaparib (first compound 0.04 µM); 0.605 with BI-D1870 + Olaparib (first compound 0.1265 µM). Also, the relative viability turned out to be 0.575 with BI-D1870 + Olaparib (first compound 0.4 µM); 0.587 with BI-D1870 + Olaparib (first compound 1.265 µM); 0.448 with BI-D1870 + Olaparib (first compound 4 µM); 0.983 with Zebularine + Foretinib (first compound 1 µM); 1.02 in the test with Zebularine + Foretinib (first compound 3.162 µM); 0.909 with Zebularine + Foretinib (first compound 10 µM). Further, the relative viability came to 0.98 with Zebularine + Foretinib (first compound 31.62 µM) and 0.611 with Zebularine + Foretinib (first compound 100 µM).
In the case of NCI-H2347, the relative viability was 0.811 with BI-D1870 + AZD7762 (first compound 0.04 µM); 0.768 in the test with BI-D1870 + AZD7762 (first compound 0.1265 µM); 0.798 with BI-D1870 + AZD7762 (first compound 0.4 µM); 0.933 in the test with BI-D1870 + AZD7762 (first compound 1.265 µM); 0.822 with BI-D1870 + AZD7762 (first compound 4 µM); 0.682 with Zebularine + Crizotinib (first compound 1 µM). The relative viability is 0.676 with Zebularine + Crizotinib (first compound 3.162 µM); 0.618 with Zebularine + Crizotinib (first compound 10 µM); 0.516 in the test with Zebularine + Crizotinib (first compound 31.62 µM); 0.381 with Zebularine + Crizotinib (first compound 100 µM); 0.547 with BI-D1870 + Olaparib (first compound 0.04 µM); 0.589 with BI-D1870 + Olaparib (first compound 0.1265 µM). Moreover, the relative viability came out at 0.552 in the test with BI-D1870 + Olaparib (first compound 0.4 µM); 0.633 with BI-D1870 + Olaparib (first compound 1.265 µM); 0.487 in the test with BI-D1870 + Olaparib (first compound 4 µM); 1.02 with Zebularine + Foretinib (first compound 1 µM); 0.856 in the test with Zebularine + Foretinib (first compound 3.162 µM); 0.881 with Zebularine + Foretinib (first compound 10 µM). Also, the relative viability with Zebularine + Foretinib (first compound 31.62 µM) is 0.614; with Zebularine + Foretinib (first compound 100 µM) it was 0.813.
On to NCI-H2405, for which the relative viability with BI-D1870 + AZD7762 (first compound 0.04 µM) stood at 0.875; in the test with BI-D1870 + AZD7762 (first compound 0.1265 µM) it was 0.707; with BI-D1870 + AZD7762 (first compound 0.4 µM), 0.717; in the test with BI-D1870 + AZD7762 (first compound 1.265 µM), 0.806; in the test with BI-D1870 + AZD7762 (first compound 4 µM), 0.624; with Zebularine + Crizotinib (first compound 1 µM), 0.845. Besides, the relative viability amounted to 0.825 with Zebularine + Crizotinib (first compound 3.162 µM); 0.621 with Zebularine + Crizotinib (first compound 10 µM); 0.846 with Zebularine + Crizotinib (first compound 31.62 µM); 0.56 with Zebularine + Crizotinib (first compound 100 µM); 0.874 with BI-D1870 + Olaparib (first compound 0.04 µM); 0.826 with BI-D1870 + Olaparib (first compound 0.1265 µM). The relative viability in the test with BI-D1870 + Olaparib (first compound 0.4 µM) was determined as 0.89; in the test with BI-D1870 + Olaparib (first compound 1.265 µM) it was 0.802; in the test with BI-D1870 + Olaparib (first compound 4 µM), 0.814; with Zebularine + Foretinib (first compound 1 µM) it was 1.04; in the test with Zebularine + Foretinib (first compound 3.162 µM) it was 1.05; with Zebularine + Foretinib (first compound 10 µM), 1.07. Further, the relative viability amounted to 0.986 with Zebularine + Foretinib (first compound 31.62 µM) and 0.664 with Zebularine + Foretinib (first compound 100 µM).
NCI-H3122: the relative viability was 0.947 with BI-D1870 + AZD7762 (first compound 0.04 µM); 0.902 in the test with BI-D1870 + AZD7762 (first compound 0.1265 µM); 0.952 in the test with BI-D1870 + AZD7762 (first compound 0.4 µM); 1.06 with BI-D1870 + AZD7762 (first compound 1.265 µM); 0.944 in the test with BI-D1870 + AZD7762 (first compound 4 µM); 0.268 with Zebularine + Crizotinib (first compound 1 µM). Besides, the relative viability was found to be 0.248 with Zebularine + Crizotinib (first compound 3.162 µM); 0.243 with Zebularine + Crizotinib (first compound 10 µM); 0.298 with Zebularine + Crizotinib (first compound 31.62 µM); 0.235 in the test with Zebularine + Crizotinib (first compound 100 µM); 0.576 with BI-D1870 + Olaparib (first compound 0.04 µM); 0.562 in the test with BI-D1870 + Olaparib (first compound 0.1265 µM). In addition, the relative viability in the test with BI-D1870 + Olaparib (first compound 0.4 µM) was found to be 0.566; with BI-D1870 + Olaparib (first compound 1.265 µM) it was 0.631; in the test with BI-D1870 + Olaparib (first compound 4 µM), 0.588; in the test with Zebularine + Foretinib (first compound 1 µM) it was 1.02; with Zebularine + Foretinib (first compound 3.162 µM), 0.939; with Zebularine + Foretinib (first compound 31.62 µM) it was 1.02. The relative viability with Zebularine + Foretinib (first compound 100 µM) amounted to 0.969.
For the cell line PC-3 [JPC-3], the relative viability with BI-D1870 + AZD7762 (first compound 0.04 µM) is 0.851; in the test with BI-D1870 + AZD7762 (first compound 0.1265 µM), 0.75; in the test with BI-D1870 + AZD7762 (first compound 0.4 µM), 0.837; with BI-D1870 + AZD7762 (first compound 1.265 µM) it was 0.693; with BI-D1870 + AZD7762 (first compound 4 µM) it was 0.449; in the test with Zebularine + Crizotinib (first compound 1 µM), 1.09. For the same cell line, the relative viability with Zebularine + Crizotinib (first compound 3.162 µM) was found to be 0.943; in the test with Zebularine + Crizotinib (first compound 10 µM) it was 0.64; in the test with Zebularine + Crizotinib (first compound 31.62 µM) it was 0.699; in the test with Zebularine + Crizotinib (first compound 100 µM) it was 0.476; with BI-D1870 + Olaparib (first compound 0.04 µM) it was 1.25; with BI-D1870 + Olaparib (first compound 0.1265 µM) it was 1.08. Further, the relative viability with BI-D1870 + Olaparib (first compound 0.4 µM) worked out at 1.08; with BI-D1870 + Olaparib (first compound 1.265 µM), 0.966; in the test with BI-D1870 + Olaparib (first compound 4 µM), 0.831; with Zebularine + Foretinib (first compound 1 µM) it was 1.09; in the test with Zebularine + Foretinib (first compound 3.162 µM), 1.07; with Zebularine + Foretinib (first compound 10 µM), 0.67. Moreover, the relative viability in the test with Zebularine + Foretinib (first compound 31.62 µM) was 0.829; in the test with Zebularine + Foretinib (first compound 100 µM), 0.444.
Turning to PC-14, the relative viability in the test with BI-D1870 + AZD7762 (first compound 0.04 µM) came to 0.449; with BI-D1870 + AZD7762 (first compound 0.1265 µM), 0.301; in the test with BI-D1870 + AZD7762 (first compound 0.4 µM), 0.361; in the test with BI-D1870 + AZD7762 (first compound 1.265 µM), 0.344; in the test with BI-D1870 + AZD7762 (first compound 4 µM), 0.316; with Zebularine + Crizotinib (first compound 1 µM) it was 1.01. In addition, the relative viability with Zebularine + Crizotinib (first compound 3.162 µM) turned out to be 0.81; in the test with Zebularine + Crizotinib (first compound 10 µM) it was 0.271; in the test with Zebularine + Crizotinib (first compound 31.62 µM), 0.141; with Zebularine + Crizotinib (first compound 100 µM) it was 0.122; with BI-D1870 + Olaparib (first compound 0.04 µM), 0.364; with BI-D1870 + Olaparib (first compound 0.1265 µM), 0.251. Also, the relative viability in the test with BI-D1870 + Olaparib (first compound 0.4 µM) was 0.273; with BI-D1870 + Olaparib (first compound 1.265 µM) it was 0.197; with BI-D1870 + Olaparib (first compound 4 µM), 0.138; with Zebularine + Foretinib (first compound 1 µM), 1.03; with Zebularine + Foretinib (first compound 3.162 µM) it was 0.878; in the test with Zebularine + Foretinib (first compound 10 µM), 0.48. Moreover, the relative viability in the test with Zebularine + Foretinib (first compound 31.62 µM) is 0.191; in the test with Zebularine + Foretinib (first compound 100 µM) it was 0.158.
As for RERF-LC-KJ, the relative viability with BI-D1870 + AZD7762 (first compound 0.04 µM) came out at 0.944; with BI-D1870 + AZD7762 (first compound 0.1265 µM), 0.896; with BI-D1870 + AZD7762 (first compound 0.4 µM) it was 0.946; in the test with BI-D1870 + AZD7762 (first compound 1.265 µM) it was 1.08; with BI-D1870 + AZD7762 (first compound 4 µM) it was 0.914; in the test with Zebularine + Crizotinib (first compound 1 µM), 1.01. The relative viability in the test with Zebularine + Crizotinib (first compound 3.162 µM) worked out at 0.826; with Zebularine + Crizotinib (first compound 31.62 µM), 0.885; in the test with Zebularine + Crizotinib (first compound 100 µM) it was 0.977; with BI-D1870 + Olaparib (first compound 0.04 µM) it was 1.09; with BI-D1870 + Olaparib (first compound 0.1265 µM), 0.831; in the test with BI-D1870 + Olaparib (first compound 0.4 µM), 0.936. Also, the relative viability with BI-D1870 + Olaparib (first compound 1.265 µM) is 0.914; with BI-D1870 + Olaparib (first compound 4 µM), 0.306; in the test with Zebularine + Foretinib (first compound 1 µM), 1; in the test with Zebularine + Foretinib (first compound 3.162 µM), 0.879; with Zebularine + Foretinib (first compound 31.62 µM), 0.895; in the test with Zebularine + Foretinib (first compound 100 µM), 0.871.
